Reference: ChEMBL document CHEMBL5042482, “Novel Allosteric Inhibitors of Deoxyhypusine Synthase against Malignant Melanoma: Design, Synthesis, and Biological Evaluation” (J Med Chem, 2021)
≈ marks a conversion by molar mass, not a printed value.

Assays:
Deoxyhypusine synthase = molecular target: T1, Deoxyhypusine synthase (Homo sapiens, UniProt P49366); assay: Inhibition of DHPS (unknown origin ) incubated for 30 mins by NAD/NADH-Glow assay
T1 sequence (P49366 whole entry): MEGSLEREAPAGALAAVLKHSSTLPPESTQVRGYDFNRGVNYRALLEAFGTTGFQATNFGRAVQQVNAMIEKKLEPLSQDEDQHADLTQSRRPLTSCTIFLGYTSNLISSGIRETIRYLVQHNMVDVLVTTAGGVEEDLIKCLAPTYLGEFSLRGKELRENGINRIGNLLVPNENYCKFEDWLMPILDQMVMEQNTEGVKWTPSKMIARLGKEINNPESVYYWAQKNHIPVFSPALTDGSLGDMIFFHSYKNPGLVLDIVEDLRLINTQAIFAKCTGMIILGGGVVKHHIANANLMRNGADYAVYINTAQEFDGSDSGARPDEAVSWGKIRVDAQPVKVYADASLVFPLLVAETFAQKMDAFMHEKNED

B16 = assay: Cytotoxicity against mouse B16 cells assessed as reduction in cell viability incubated for 24 hrs by CCK-8 assay; format: functional, cell-based; conditions: B16, 24 h
[1] = (§1) Cytotoxicity against human HaCaT cells assessed as reduction in cell viability incubated for 24 hrs by CCK-8 assay; format: toxicity, cell-based; conditions: HaCaT cells
A-375 [2] = assay: Cytotoxicity against human A-375 cells assessed as reduction in cell viability incubated for 24 hrs by CCK-8 assay; format: functional, cell-based; conditions: A-375, 24 h
SK-MEL-28 = assay: Cytotoxicity against human SK-MEL-28 cells assessed as reduction in cell viability incubated for 24 hrs by CCK-8 assay; format: functional, cell-based; conditions: SK-MEL-28, 24 h
HaCaT = assay: as §1; format: toxicity, cell-based; conditions: hacat, 24 h
[3] = Aqueous solubility of compound; format: physicochemical; conditions: buffer
[4] = Acute toxicity in zebra fish assessed as lethal concentration measured for 96 hrs; design: species or system Danio rerio; conditions: zebrafish
[5] = AUC (0 to t) in Sprague-Dawley rat at 160 mg/kg, ip by UHPLC-MS analysis; format: ADME, organism-based; design: dose 160 mg/kg; conditions: in vivo
[6] = AUC (0 to infinity) in Sprague-Dawley rat at 160 mg/kg, ip by UHPLC-MS analysis; format: ADME, organism-based; design: route intraperitoneal, time infinity, dose 160 mg/kg; conditions: in vivo
[7] = Half life in Sprague-Dawley rat at 160 mg/kg, ip by UHPLC-MS analysis; format: ADME, organism-based; conditions: in vivo
[8] = Clearance in Sprague-Dawley rat at 160 mg/kg, ip by UHPLC-MS analysis; format: ADME, organism-based; conditions: in vivo
[9] = Volume of distribution in Sprague-Dawley rat at 160 mg/kg, ip by UHPLC-MS analysis; format: ADME, organism-based; conditions: in vivo
[10] = Toxicity in Sprague-Dawley rat assessed as effect on serum AST level at 160 mg/kg, ip (reference value: 69.70 to 332.90 U/L); format: organism-based; conditions: in vivo
[11] = Toxicity in Sprague-Dawley rat assessed as effect on serum ALT level at 160 mg/kg, ip (reference value: 33.70 to 98.70 U/L); format: organism-based; conditions: in vivo
[12] = Toxicity in Sprague-Dawley rat assessed as effect on serum Glu level at 160 mg/kg, ip (reference value: 2.65 to 7.65 mmol/L); format: organism-based; conditions: in vivo
[13] = Toxicity in Sprague-Dawley rat assessed as effect on serum CRE level at 160 mg/kg, ip (19.43 to 64.97 micromol/L); format: organism-based; conditions: in vivo
[14] = Effect on intracellular ROS content in human HaCaT cells by DCFH-DA staining-based method; format: toxicity, cell-based
A-375 [15] = assay: Anticancer activity against human A-375 cells xenografted in BALB/c mouse assessed as tumor growth inhibition at 80 mg/kg, ip treated every 3 days measured after 3 weeks relative to control; format: functional; conditions: A-375, ip, 504 h, read-out: TGI

| IC50 (Deoxyhypusine synthase) [µM] | SMILES | IC50 (B16) [µM] | CC50 at 24 h [1] [µM] | IC50 (A-375 [2]) [µM] | IC50 (SK-MEL-28) [µM] | also measured |
| --- | --- | --- | --- | --- | --- | --- |
| 80 | COc1cccc(-c2nc(N)c(Oc3ccccc3OC)c(OCCO)n2)c1 | 30.4 | 12.7 |  |  |  |
| 0.04 | COc1cccc(-c2nc(N)c(Oc3ccccc3OC)c(Cl)n2)c1 | 23.6 | 14 | 24.6 |  |  |
| 0.1 | COc1ccccc1Oc1c(N)nc(-c2ccc(Cl)cc2)nc1Cl | 18.8 |  | 1.03 | 0.12 |  |
| 0.64 | COc1ccccc1Oc1c(N)nc(-c2ccc(F)cc2)nc1Cl | 2.99 | 42.6 | 28.2 | 31.9 |  |
|  | COc1ccc(-c2nc(N)c(Oc3ccccc3OC)c(OCCO)n2)cc1 | 18.1 |  |  |  |  |
| 60.8 | COc1ccccc1Oc1c(NS(=O)(=O)c2ccc(C(C)(C)C)cc2)nc(-c2ncccn2)nc1OCCO [BOSENTAN] | > 80 |  | 67.4 | 53.6 |  |
| 1.17 | COc1ccccc1Oc1c(N)nc(-c2cccc(C)c2)nc1OCCO | 70.9 |  | 1.38 | 14.7 |  |
| 0.33 | COc1ccccc1Oc1c(N)nc(-c2cccc(F)c2)nc1OCCO | 20.9 |  | 8.53 | 3.21 |  |
| 33.7 | COc1ccccc1Oc1c(N)nc(-c2cccc(C)c2)nc1Cl | 13.1 | 11.2 | 65.3 | 54 |  |
| 0.56 | COc1ccccc1Oc1c(N)nc(-c2cccc(I)c2)nc1OCCO | 20.3 |  | 1.23 | 11.2 |  |
| 0.18 | COc1ccccc1Oc1c(N)nc(-c2ccc(C)cc2)nc1OCCO | 8.43 | 56.6 | 2.38 | 6.19 |  |
| 20 | COc1ccccc1Oc1c(N)nc(-c2cccc(Cl)c2)nc1Cl | 17.9 | > 80 | 38.3 | 19.4 |  |
| 12.9 | COc1ccccc1Oc1c(N)nc(-c2ccccc2F)nc1Cl | 13.8 | > 80 | > 80 |  |  |
| 0.32 | COc1ccccc1Oc1c(N)nc(Cc2ccccc2)nc1OCCO | 47.4 |  | 0.2 | 14 |  |
| 38.7 | COc1ccccc1Oc1c(N)nc(-c2cccc(I)c2)nc1Cl | 27.6 |  | 2.2 | 4.66 |  |
| 59.1 | COc1ccccc1Oc1c(N)nc(-c2ccc(C)cc2)nc1Cl | 17.4 | 6.3 | > 80 |  |  |

| IC50 (Deoxyhypusine synthase) [µM] | SMILES | IC50 (B16) [µM] | CC50 at 24 h [1] [µM] | IC50 (A-375 [2]) [µM] | IC50 (SK-MEL-28) [µM] | also measured |
| --- | --- | --- | --- | --- | --- | --- |
| 35.8 | COc1ccccc1Oc1c(N)nc(-c2cccc(Br)c2)nc1Cl | 24.6 | 16.1 |  |  |  |
| 0.18 | COc1ccccc1Oc1c(N)nc(-c2ccc(I)cc2)nc1Cl | 5.4 |  | 0.48 | 1.25 |  |
| 0.53 | COc1ccccc1Oc1c(N)nc(-c2ccccc2)nc1Cl | 4.61 |  | 7.22 | 3.14 | CC50 (HaCaT): Not Active |
| 4.42 | COc1ccccc1Oc1c(N)nc(-c2cccc(Cl)c2)nc1OCCO | 5.01 |  | 30.2 | 4.17 |  |
| 4.31 | COc1ccccc1Oc1c(N)nc(-c2cccc(Br)c2)nc1OCCO | 21.9 |  | 0.65 | 4.04 |  |
| 53.7 | COc1ccccc1Oc1c(N)nc(-c2ccccc2)nc1OCCO | 31.1 |  | > 80 | > 80 |  |
| 5.43 | COc1ccccc1Oc1c(N)nc(-c2ccccc2F)nc1OCCO | 11.8 | 39.5 | > 80 |  |  |
| 2.29 | COc1ccccc1Oc1c(N)nc(-c2ccc(I)cc2)nc1OCCO | 19.6 |  |  |  |  |
|  | COc1ccccc1Oc1c(N)nc(-c2cccc(F)c2)nc1Cl | 21.7 | 17 |  |  |  |
| 18.2 | COc1ccc(-c2nc(N)c(Oc3ccccc3OC)c(Cl)n2)cc1 | 47.8 | 8.2 | > 80 |  |  |
| 11.8 | COc1ccccc1Oc1c(N)nc(-c2ccc(Br)cc2)nc1OCCO | 11.8 |  | 10.3 | 4.4 |  |
| 38.1 | COc1ccccc1Oc1c(N)nc(-c2ccc(Cl)cc2)nc1OCCO | 7.74 |  | > 80 | > 80 |  |
| 0.05 | COc1ccccc1Oc1c(N)nc(Cc2ccccc2)nc1Cl | 39.1 | 30.6 | 15.7 | 8.65 |  |
| 2.38 | COc1ccccc1Oc1c(N)nc(-c2ccc(F)cc2)nc1OCCO | 30.1 | 15.1 | 15.9 | 20.1 |  |
| 1.72 | N=C(N)NCCCCCCCN | 5.25 | 3.96 | 1.48 | 0.79 |  |

| SMILES | IC50 (Deoxyhypusine synthase) [µM] | IC50 (B16) [µM] | CC50 at 24 h [1] [µM] | IC50 (A-375 [2]) [µM] | IC50 (SK-MEL-28) [µM] | also measured |
| --- | --- | --- | --- | --- | --- | --- |
| COc1ccccc1Oc1c(N)nc(-c2ccc(Br)cc2)nc1Cl | 0.014 | 4.44 | 58.6 | 0.063 | 0.014 | logS0 [3]: -4.416; LC50 at 96 h [4]: 3750 µg/mL (≈ 9.23 mM); AUC(0-t) [5]: 2400 ng·h/mL; AUC(0-inf) [6]: 5660 ng·h/mL; half-life [7]: 3.66 h; CL/F [8]: 743 mL/min/kg; Vd [9]: 228.602 L/kg; Activity [10]: 113.1 U/L; Activity [11]: 80.47 U/L; Activity [12]: 4.345 mmol/L; Activity [13]: 24.375 µmol/L; Activity [14]: Non-Toxic; inhibition in vivo at 80 mg/kg (A-375 [15]): 50.3% |
